Source: patent US20150299125A1, “PRODRUG BIPYRIDYLAMINOPYRIDINES AS SYK INHIBITORS” (MERCK SHARP & DOHME CORP., priority 2012, published 2015)
Converted amounts (≈) assume the structure as drawn. Where two headings read alike, the source gives them in different places.

How the values were obtained:
[1] = target: T1, recombinant human GST-Syk (Homo sapiens, UniProt P43405); test: Homogeneous Time-Resolved Fluorescence (HTRF) assay for the recombinant human Syk enzyme; format: biochemical; settings: recombinant human GST-Syk 5 pM, ATP 25 μM, read-out: IC50
T1 construct: purchased Carna Biosciences 08-176
Method: Syk inhibition of the compounds of Formula (I) may be determined using the following assay protocol: Homogeneous Time-Resolved Fluorescence (HTRF) Assay for the Recombinant Human Syk Enzyme: A recombinant GST-hSyk fusion protein was used to measure potency of compounds to inhibit human Syk activity. […] Final volume of the reaction was 10 μL. Phosphorylation of the peptide was allowed to proceed for 45' at room temperature. To quench the reaction and detect the phosphorylated product, 2 nM of a Europium-anti-phosphotyrosine antibody (Perkin Elmer #AD0161) and 70 nM SA-APC (Perkin-Elmer #CR130-100) were added together in 15 mM Tris pH 7.5, 40 mM EDTA, 0.01% tween 20. Final volume of the quenching solution was 10 μL. The resulting HTRF signal was measured after 30 minutes on a EnVision (Perkin-Elmer) reader using a time-resolved fluorescence protocol.

[2] = Solubility in biorelevant fasted state simulated intestinal fluid (FaSSIF); format: physicochemical; settings: kinetic from dmso stock
Method: Solubility in Biorelevant Fasted State Simulated Intestinal Fluid (FaSSIF):
A 10 mM DMSO stock solution of compound to be tested is used. A 100 μM standard solution is generated by diluting 2.5 μL of the 10 mM stock solution with 247.5 μL of diluent (10% DMSO/10% MeCN/80% MeOH, v/v/v). A solubility solution is generated by diluting 5 μL of the 10 mM stock solution with 245 μL of FaSSIF (maximum solubility approximately 200 μM). […] The equilibrated solubility solution is filtered by centrifugation (3 minutes at 4000 rpm) using a 0.45 µm filter with a polypropylene membrane. The standard solution and the filtered equilibrated solubility solution are analyzed by HPLC/DAD. The solubility value is calculated by the following equation:
Solubility=(Peak area of sample/Peak area of standard)(Standard concentration)

| SMILES | IC50 [1] | solubility ([2]; FaSSIF, equilibrated overnight at 25° C., maximum solubility approximately 200 μM, read-out: Solubility) | solubility ([2]; 25 °C, fassif, Solubility) | solubility ([2]; FaSSIF (fasted state simulated intestinal fluid), 25 °C, fassif, FaSSIF, equilibrated overnight at 25° C., maximum solubility approximately 200 μM, read-out: Solubility) |
| --- | --- | --- | --- | --- |
| Cc1cc(Nc2cc(C(F)F)ccn2)nc(-c2ccc([C@](C)(O)[C@H]3CC[C@H](C(=O)OCCC(C)(C)O)CC3)nc2)c1 [Example 1-12, 3-hydroxy-3-methylbutyl trans-4-[(1R)-1-(6-{[4-(difluoromethyl)pyridin-2-yl]amino}-4-methyl-2,3′-bipyridin-6′-yl)-1-hydroxyethyl] cyclohexanecarboxylate] | 10 nM | 76 µM (≈ 43.2 µg/mL) | – | – |
| Cc1cc(Nc2cc(C(F)F)ccn2)nc(-c2ccc([C@](C)(O)[C@H]3CC[C@H](C(=O)OCCCN(C)C)CC3)nc2)c1 [Example 1-13, 3-(dimethylamino)propyl trans-4-[(1R)-1-(6-{[4-(difluoromethyl)pyridin-2-yl]amino}-4-methyl-2,3′-bipyridin-6′-yl)-1-hydroxyethyl] cyclohexanecarboxylate] | 4.4 nM | – | 140 µM (≈ 79.5 µg/mL) | – |
| Cc1cc(Nc2cc(C(F)F)ccn2)nc(-c2ccc([C@](C)(O)[C@H]3CC[C@H](C(=O)OC[C@H]4COC(C)(C)O4)CC3)nc2)c1 [Example 1-14, [(4R)-2,2-dimethyl-1,3-dioxolan-4-yl]methyl trans-4-[(1R)-1-(6-{[4-(difluoromethyl)pyridin-2-yl]amino}-4-methyl-2,3′-bipyridin-6′-yl)-1-hydroxyethyl] cyclohexanecarboxylate] | 27.6 nM | – | 109 µM (≈ 65 µg/mL) | – |
| Cc1cc(Nc2cc(C(F)F)ccn2)nc(-c2ccc([C@](C)(O)[C@H]3CC[C@H](C(=O)OC[C@@H]4COC(C)(C)O4)CC3)nc2)c1 [Example 1-15, [(4S)-2,2-dimethyl-1,3-dioxolan-4-yl]methyl trans 4-[(1R)-1-(6-{[4-(difluoromethyl)pyridin-2-yl]amino}-4-methyl-2,3′-bipyridin-6′-yl)-1-hydroxyethyl] cyclohexanecarboxylate] | 18.5 nM | – | 126 µM (≈ 75.2 µg/mL) | – |
| Cc1cc(Nc2cc(C(F)F)ccn2)nc(-c2ccc([C@](C)(O)[C@H]3CC[C@H](C(=O)OC[C@H](O)CO)CC3)nc2)c1 [Example 1-16, (2R)-2,3-dihydroxypropyl trans-4-[(1R)-1-(6-{[4-(difluoromethyl)pyridin-2-yl]amino}-4-methyl-2,3′-bipyridin-6′-yl)-1-hydroxyethyl] cyclohexanecarboxylate] | 2.3 nM | – | 165 µM (≈ 91.8 µg/mL) | – |
| Cc1cc(Nc2cc(C(F)F)ccn2)nc(-c2ccc([C@](C)(O)[C@H]3CC[C@H](C(=O)OC4CCNCC4)CC3)nc2)c1 [Example 1-17, piperidin-4-yl trans-4-[(1R)-1-(6-{[4-(difluoromethyl)pyridin-2-yl]amino}-4-methyl-2,3′-bipyridin-6′-yl)-1-hydroxyethyl] cyclohexanecarboxylate] | 4.1 nM | – | 136 µM (≈ 76.9 µg/mL) | – |
| Cc1cc(Nc2cc(C(F)F)ccn2)nc(-c2ccc([C@](C)(O)[C@H]3CC[C@H](C(=O)OC4CC5CCC(C4)N5)CC3)nc2)c1 (stereo partly drawn) [Example 1-18, 8-azabicyclo[3.2.1]oct-3-yl trans-4-[(1R)-1-(6-{[4-(difluoromethyl)pyridin-2-yl]amino}-4-methyl-2,3′-bipyridin-6′-yl)-1-hydroxyethyl] cyclohexanecarboxylate] | 2.7 nM | – | – | 109 µM (≈ 64.5 µg/mL) |
| Cc1cc(Nc2cc(C(F)F)ccn2)nc(-c2ccc([C@](C)(O)[C@H]3CC[C@H](C(=O)O[C@H]4C[C@H](N)C4)CC3)nc2)c1 [Example 1-19, trans-3-aminocyclobutyl trans-4-[(1R)-1-(6-{[4-(difluoromethyl)pyridin-2-yl]amino}-4-methyl-2,3′-bipyridin-6′-yl)-1-hydroxyethyl] cyclohexanecarboxylate] | 4.4 nM | – | 98 µM (≈ 54.1 µg/mL) | – |
| Cc1cc(Nc2cc(C(F)F)ccn2)nc(-c2ccc([C@](C)(O)[C@H]3CC[C@H](C(=O)OCC4CCOCC4)CC3)nc2)c1 [Example 1-20, tetrahydro-2H-pyran-4-ylmethyl trans-4-[(1R)-1-(6-{[4-(difluoromethyl)pyridin-2-yl]amino}-4-methyl-2,3′-bipyridin-6′-yl)-1-hydroxyethyl] cyclohexanecarboxylate] | 34.1 nM | – | 47 µM (≈ 27.3 µg/mL) | – |
| CN[C@H]1CC[C@H](OC(=O)[C@H]2CC[C@H]([C@@](C)(O)c3ccc(-c4cc(C)cc(Nc5cc(C(F)F)ccn5)n4)cn3)CC2)CC1 [Example 1-24, trans-4-(methylamino)cyclohexyl trans-4-[(1R)-1-(6-{[4-(difluoromethyl)pyridin-2-yl]amino}-4-methyl-2,3′-bipyridin-6′-yl)-1-hydroxyethyl] cyclohexanecarboxylate] | 3.5 nM | – | 141 µM (≈ 83.7 µg/mL) | – |
| Cc1cc(Nc2cc(C(F)F)ccn2)nc(-c2ccc([C@](C)(O)[C@H]3CC[C@H](C(=O)OCCCCCCN(C)C)CC3)nc2)c1 [Example 1-25, 6-(dimethylamino)hexyl trans-4-[(1R)-1-(6-{[4-(difluoromethyl)pyridin-2-yl]amino}-4-methyl-2,3′-bipyridin-6′-yl)-1-hydroxyethyl] cyclohexanecarboxylate] | < 0.5 nM | – | 73 µM (≈ 44.5 µg/mL) | – |
| CO[C@H]1O[C@H](COC(=O)[C@H]2CC[C@H]([C@@](C)(O)c3ccc(-c4cc(C)cc(Nc5cc(C(F)F)ccn5)n4)cn3)CC2)[C@@H](O)[C@H](O)[C@H]1O [Example 1-26, methyl 6-O-({trans-4-[(1R)-1-(6-{[4-(difluoromethyl)pyridin-2-yl]amino}-4-methyl-2,3′-bipyridin-6′-yl)-1-hydroxyethyl]cyclohexyl}carbonyl)-alpha-D-glucopyranoside] | 4.1 nM | – | 109 µM (≈ 71.8 µg/mL) | – |
| Cc1cc(Nc2cc(C(F)F)ccn2)nc(-c2ccc([C@](C)(O)[C@H]3CC[C@H](C(=O)OCCC(=O)N(C)C)CC3)nc2)c1 [Example 1-27, 3-(dimethylamino)-3-oxopropyl trans-4-[(1R)-1-(6-{[4-(difluoromethyl)pyridin-2-yl]amino}-4-methyl-2,3′-bipyridin-6′-yl)-1-hydroxyethyl] cyclohexanecarboxylate] | 1.8 nM | – | 50 µM (≈ 29.1 µg/mL) | – |
| Cc1cc(Nc2cc(C(F)F)ccn2)nc(-c2ccc([C@](C)(O)[C@H]3CC[C@H](C(=O)OCOC(=O)OCCCCCCN)CC3)nc2)c1 [Example 2-1, ({[(6-Aminohexyl)oxy]carbonyl}oxy)methyl trans-4-[(1R)-1-(6-{[4-(difluoromethyl)pyridin-2-yl]amino}-4-methyl-2,3′-bipyridin-6′-yl)-1-hydroxyethyl]cyclohexanecarboxylate] | 19.9 nM | – | 167 µM (≈ 110 µg/mL) | – |
| Cc1cc(Nc2cc(C(F)F)ccn2)nc(-c2ccc([C@](C)(O)[C@H]3CC[C@H](C(=O)OCOC(=O)O[C@H]4CC[C@H](N)CC4)CC3)nc2)c1 [Example 2-11, ({[(trans-4-aminocyclohexyl)oxy]carbonyl}oxy) methyl trans-4-[(1R)-1-(6-{[4-(difluoromethyl)pyridin-2-yl]amino}-4-methyl-2,3′-bipyridin-6′-yl)-1-hydroxyethyl]cyclo hexanecarboxylate] | 5.2 nM | – | 149 µM (≈ 97.4 µg/mL) | – |
| CCOCCOCCOC(=O)OC(OC(=O)[C@H]1CC[C@H]([C@@](C)(O)c2ccc(-c3cc(C)cc(Nc4cc(C(F)F)ccn4)n3)cn2)CC1)C(C)C (stereo partly drawn) [Example 2-16, 1-(1-methylethyl)-3-oxo-2,4,7,10-tetraoxadodec-1-yl trans-4-[(1R)-1-(6-{[4-(difluoromethyl)pyridin-2-yl]amino}-4-methyl-2,3′-bipyridin-6′-yl)-1-hydroxyethyl]cyclo hexanecarboxylate] | 48.4 nM | – | 48 µM (≈ 34.3 µg/mL) | – |
| Cc1cc(Nc2cc(C(F)F)ccn2)nc(-c2ccc([C@](C)(O)[C@H]3CC[C@H](C(=O)OCOC(=O)[C@@H](O)Cc4ccc(O)cc4)CC3)nc2)c1 [Example 3-6, {[(2S)-2-hydroxy-3-(4-hydroxyphenyl)propanoyl]oxy}methyl trans-4-[(1R)-1-(6-{[4-(difluoromethyl)pyridin-2-yl]amino}-4-methyl-2,3′-bipyridin-6′-yl)-1-hydroxyethyl]cyclohexane carboxylate] | 4.1 nM | – | 89 µM (≈ 60.2 µg/mL) | – |
| Cc1cc(Nc2cc(C(F)F)ccn2)nc(-c2ccc([C@](C)(O)[C@H]3CC[C@H](C(=O)OCOC(=O)CCO)CC3)nc2)c1 [Example 3-9, [(3-hydroxypropanoyl)oxy] methyl trans-4-[(1R)-1-(6-{[4-(difluoromethyl)pyridin-2-yl]amino}-4-methyl-2,3′-bipyridin-6′-yl)-1-hydroxyethyl]cyclohexane carboxylate] | 4.8 nM | – | 160 µM (≈ 93.5 µg/mL) | – |
| Cc1cc(Nc2cc(C(F)F)ccn2)nc(-c2ccc([C@](C)(O)[C@H]3CC[C@H](C(=O)OC[N+](C)(C)C(C)C)CC3)nc2)c1 [Example 5-2, N-{[({trans-4-[(1R)-1-(6-{[4-(difluoromethyl)pyridin-2-yl]amino}-4-methyl-2,3′-bipyridin-6′-yl)-1-hydroxyethyl]cyclohexyl}carbonyl)oxy]methyl}-N,N-dimethylpropan-2-aminium] | 0.8 nM | – | 97 µM | – |
